Experimental findings from patent publication US20110165128A1, “HOMING IN MESENCHYMAL STEM CELLS” (Columbia University in the City of New York, priority 2008, published 2011) are described below.

Structures are written as SMILES.

The test system of the assay is adhesion of hMSCs to HUVECs. Put plainly: Adhesion assay: adhesion of hMSCs to endothelial cells (HUVECs). Conditions: 0.5 μg/ml SDF-1 or 10 μM AMD3100. Format: cell-based, human. An excerpt:
Exposure of cells to hypoxia: HUVECs were exposed to hypoxia in a BD GasPak EZ Anaerobe Gas Generating Pouch System with an Indicator (BD Biosciences) as described (Potapova, 2007). As certified by the manufacturer, the Anaerobe Gas Generating Pouch System produces an atmosphere containing 10% carbon dioxide and 1% oxygen.
Adhesion Assay: Adhesion of hMSCs to endothelial cells was studied using hMSCs isolated from a monolayer or 3 day old hMSC spheroids. Cells were dissociated using 0.25% trypsin-EDTA solution (Lonza) for 15 min in the case of hMSC monolayers, or for 90 min in the case of the spheroids. Trypsinization was stopped by addition of trypsin inhibitor solution (Lonza). Isolated cells were washed with PBS, labeled with 2 μg/ml Calcein AM in HBSS for 45 min at 37 °C in a humidified atmosphere of 5% CO2, washed with HBSS and resuspended in DMEM supplemented with 5% fetal bovine serum. HUVECs were plated in 24 well plates and maintained in EBM-2 growth media for 2-3 days until they reached confluence. For the adhesion assay, EBM-2 media was replaced with 0.5 ml of DMEM supplemented with 5% fetal bovine serum. hMSCs (10,000 cells per well) were added to endothelial cells. The adhesion assay was performed in the presence 0.5 μg/ml SDF-1, 10 μM AMD3100 or without additives. Plates were placed on a rotation platform (30 rotations per min) and incubated for 30 min at 37° C. […] Fluorescence was acquired from the bottom of the plates using a POLARstar OPTIMA microplate reader at excitation/emission wavelengths of 485/520 nm. Background fluorescence was determined in the wells containing no hMSCs but a monolayer of endothelial cells. Total cell load was estimated as the fluorescence from non-washed wells with added hMSCs. A minimum six wells were used to estimate background fluorescence, total cell load or fluorescence from adhered cells. Percent of bound cells was calculated as a ratio between fluorescence of adhered cells and total cell load after subtraction of background fluorescence. […]

In the case of `c1cc(CN2CCCNCCNCCCNCC2)ccc1CN1CCCNCCNCCCNCC1` [AMD3100], the “effect on the adhesion of cells from the spheroids to endothelial cells preexposed to hypoxia” value (cells from 3 day old hMSC spheroids, HUVECs pre-exposed to hypoxia) is listed as “no effect”. Also, the “stimulation of the adhesion of cells from the spheroids to normoxic endothelial cells” value (cells from 3 day old hMSC spheroids, normoxic HUVECs) came out at 1.7±0.4 times. For the same compound, the “effect on the adhesion of hMSCs from a monolayer to endothelial cells” value (hMSCs from a monolayer, normoxic or pre-exposed to hypoxia HUVECs) was “Neither SDF-1 nor AMD3100 affected the adhesion”.
